In ChEMBL document CHEMBL1201862, “PubChem BioAssay data set” (2004):
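All cell lines were grown in 96-well plates and treated with compound for 48 hours. Abbreviation: GI50, concentration required for 50% inhibition of growth.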 The source made the active and inactive calls. Rule as the data show it: active = GI50 up to about 1.1 µM and inactive = higher.

Columns and labels:
Experiment in all cases: NCI anticancer screen, dose series, 48 h
[1] = tested on: NCI-H226
[2] = tested on: Malme-3M
[3] = tested on: EKVX
[4] = tested on: LOX IMVI
[5] = tested on: U-251
[6] = tested on: HCT-15
[7] = tested on: TK-10
[8] = tested on: UO-31
[9] = tested on: SNB-75
[10] = tested on: OVCAR-4
[11] = tested on: SK-MEL-5
[12] = tested on: SF-268
[13] = tested on: RPMI-8226
[14] = tested on: BT-549
[15] = tested on: MDA-MB-231
[16] = tested on: HL-60
[17] = tested on: T47D
[18] = tested on: NCI/ADR-RES
[19] = tested on: Hs-578T

| SMILES | GI50 [1] | GI50 [2] | GI50 [3] | GI50 [4] | GI50 [5] | GI50 [6] [µM] | GI50 [7] | GI50 [8] | GI50 [9] | GI50 [10] | GI50 [11] | GI50 [12] | GI50 [13] | GI50 [14] | GI50 [15] | GI50 [16] | GI50 [17] | GI50 [18] | GI50 [19] |
| --- | --- | --- | --- | --- | --- | --- | --- | --- | --- | --- | --- | --- | --- | --- | --- | --- | --- | --- | --- |
| CC(C)(C)S(=O)OC12CC3CC(CC(C3)C1)C2 (stereo not drawn) | > 100 µM (inactive) | > 100 µM (inactive) | > 100 µM (inactive) | > 100 µM (inactive) | > 100 µM (inactive) | > 100 | > 100 µM (inactive) | 92 µM (inactive) | 33.8 µM (inactive) | > 100 µM (inactive) | > 100 µM (inactive) | > 100 µM (inactive) | > 100 µM (inactive) | – | – | – | – | – | – |
| CC(=O)NC(C)(C)C1CCC(C)=C(c2ccccc2)C1 (stereo not drawn) | – | – | > 100 µM (inactive) | > 100 µM (inactive) | 80 µM (inactive) | 74 | > 100 µM (inactive) | > 100 µM (inactive) | 53.6 µM (inactive) | > 100 µM (inactive) | > 100 µM (inactive) | > 100 µM (inactive) | – | > 100 µM (inactive) | 55.8 µM (inactive) | 31.1 µM (inactive) | > 100 µM (inactive) | – | – |
| CCN(CC)c1nnc(CCCCCCCCc2nnc(N(CC)CC)o2)o1 | > 100 µM (inactive) | > 100 µM (inactive) | > 100 µM (inactive) | > 100 µM (inactive) | > 100 µM (inactive) | > 100 | > 100 µM (inactive) | > 100 µM (inactive) | > 100 µM (inactive) | > 100 µM (inactive) | > 100 µM (inactive) | > 100 µM (inactive) | – | > 100 µM (inactive) | > 100 µM (inactive) | > 100 µM (inactive) | – | > 100 µM (inactive) | – |
| CC(C)N1CCCOC(c2ccc([N+](=O)[O-])cc2)O1 (stereo not drawn) | > 100 µM (inactive) | > 100 µM (inactive) | > 100 µM (inactive) | > 100 µM (inactive) | > 100 µM (inactive) | > 100 | > 100 µM (inactive) | > 100 µM (inactive) | > 100 µM (inactive) | > 100 µM (inactive) | 58.6 µM (inactive) | > 100 µM (inactive) | – | > 100 µM (inactive) | > 100 µM (inactive) | – | > 100 µM (inactive) | > 100 µM (inactive) | – |
| CN(C)c1ccc(/C=C(\NC(=O)c2ccccc2)c2nc3cncnc3[nH]2)cc1 | – | > 100 µM (inactive) | > 100 µM (inactive) | – | > 100 µM (inactive) | > 100 | > 100 µM (inactive) | > 100 µM (inactive) | – | > 100 µM (inactive) | > 100 µM (inactive) | > 100 µM (inactive) | – | – | – | > 100 µM (inactive) | – | – | – |
| CCOC(=O)NC(NC(C)CC)(C(F)(F)F)C(F)(F)F (stereo not drawn) | > 100 µM (inactive) | > 100 µM (inactive) | > 100 µM (inactive) | > 100 µM (inactive) | 81.5 µM (inactive) | > 100 | > 100 µM (inactive) | > 100 µM (inactive) | > 100 µM (inactive) | > 100 µM (inactive) | > 100 µM (inactive) | > 100 µM (inactive) | > 100 µM (inactive) | – | > 100 µM (inactive) | > 100 µM (inactive) | > 100 µM (inactive) | > 100 µM (inactive) | > 100 µM (inactive) |
| C/C(=N\NC(N)=O)C(CN1CCOCC1)C(c1ccccc1)c1c(O)c2ccccc2oc1=O (stereo not drawn) | > 100 µM (inactive) | > 100 µM (inactive) | > 100 µM (inactive) | > 100 µM (inactive) | > 100 µM (inactive) | > 100 | > 100 µM (inactive) | > 100 µM (inactive) | > 100 µM (inactive) | > 100 µM (inactive) | > 100 µM (inactive) | > 100 µM (inactive) | > 100 µM (inactive) | > 100 µM (inactive) | > 100 µM (inactive) | > 100 µM (inactive) | – | > 100 µM (inactive) | > 100 µM (inactive) |
| O=[N+]([O-])c1ccc(N/N=C/CC(O)(C(F)(F)F)C(F)(F)F)c([N+](=O)[O-])c1 | 3.72 µM (inactive) | 4.97 µM (inactive) | 5.35 µM (inactive) | 5.55 µM (inactive) | 3.48 µM (inactive) | 3.01 | 5.79 µM (inactive) | 3.06 µM (inactive) | > 10 µM (inactive) | 4.99 µM (inactive) | 4.55 µM (inactive) | 4.26 µM (inactive) | 2.76 µM (inactive) | – | > 10 µM (inactive) | 4.07 µM (inactive) | 3.21 µM (inactive) | 3.68 µM (inactive) | 2.74 µM (inactive) |
| COc1ccc(/C(=N/Nc2ccccc2)C(c2ccc(OC)cc2)C2OC(=O)c3ccccc32)cc1 (stereo not drawn) | 9.84 µM (inactive) | > 100 µM (inactive) | 37.8 µM (inactive) | – | > 100 µM (inactive) | > 100 | – | 60.7 µM (inactive) | 48.9 µM (inactive) | > 100 µM (inactive) | 33.2 µM (inactive) | 23.3 µM (inactive) | – | – | – | – | – | – | – |
